Measurements published in patent US20250115565A1, “SOLID CRYSTALLINE FORMS OF HELICASE-PRIMASE INHIBITORS AND PROCESS OF PREPARATION THEREOF” (INNOVATIVE MOLECULES GMBH, priority 2022, published 2025).
Where a name gives a salt, the structure may show the parent alone.

Tests used:
[1] = Chemical accelerated stability by HPLC after temperature and humidity stress (Example 7); format: physicochemical; conditions: for % of unchanged compound left: HPLC UV 285 nm, 3 assays
Method: (§1) The chemical and physical accelerated stability of the crystalline material was studied in order to anticipate potential stability issues upon storage or ageing. Crystals were stored for 1 month at 40° C./75% relative humidity (RH) and were also stored for 1 month at 60° C. (and % HR<10% RH). The chemical stability was assessed by HPLC by external standardization versus a freshly prepared (non-stressed) standard solution. For that purpose, six samples (exactly weighted) are stored for each condition: 3 for the 2-weeks stability and 3 for the 4-weeks stability. The physical stability was also assessed by XRPD, DSC analyses by comparing the XRPD and DSC profiles of stressed samples to those of a non-stressed sample. For that purpose, two more samples (one per time point) are stored in each condition (respectively 40° C./75% RH and 60° C.).

[2] = Physical accelerated stability by XRPD and DSC after temperature and humidity stress (Example 7); format: physicochemical
Method: XRPD analysis was performed on a Bruker D2 Phase diffractometer using a copper anti-cathode, a mono-crystalline silicone sample holder and a position sensitive detector (LynxExe). Powder sample was loaded on a flat mono-crystalline silicone sample holder in a way to avoid preferred orientation and to sensure planarity of the speciem surface. Instrument operation conditions were as follows: ambient temperature and atmosphere; X-ray generator voltage 30 kV and intensity 10 mA; X-ray source: target Copper; emission radiation Kα1=0.15406 nm, Kα2=0.15444 nm, ratio Kα2/Kα1=0.5, KB filter radiation Nickel; Slit: anti-divergence […], Sollers slit 2.5°; Goniometer: angular sector analyzed from 4° to 45° or 4° to 50° for 20, step size 0.07° for 20; Sample holder rotation speed: 30 rpm; Detection: exposition time per step size of goniometer 1 s.
DSC analysis was performed on a Q1000 TA Instruments analyzer. The sample to be analyzed was weighed in an aluminium capsule, which was then crimped and put into the calorimeter oven. Instrument operation conditions were as follows: heater ramp 10° C./min; final temperature 230° C. or 240° C.; carrier gas: nitrogen (Messer “qualité Azote 5.0”) with flow rate of 50 mL/min.
as §1

[3] = Relative bioavailability of crystalline and salt forms after single oral dose in male mice (Example 6); format: in vivo; conditions: male C57bl/6 mice, single oral dose adjusted to 10 mg/kg free IM-250, suspension in 0.5% HPMC in PBS, blood
Method: The relative bioavailability of crystalline and different salt forms versus suspended IM-250 (derived from a DMSO stock solution) after single dose oral administration in male C57bl/6 mice was examined. Animals (3 per group) had food withdrawn approximately 2 h before administration. The suspension was prepared from a DMSO stock solution, which was diluted 1:20 with 0.5% HPMC in PBS, ultrasonificated and orally administered with a gavage volume of 5 mL/kg. The suspensions of crystalline and different salt forms were prepared directly by adding powder to 0.5% HPMC in PBS, ultrasonificated and orally administered with a gavage volume of 5 mL/kg. Blood samples were taken at 0.5 h, 1 h, 2 h, 5 h, 12 h and 24 h via capillary microsampling and bioanalytics was measured via non-chiral LC-MS. The area-under-curve (AUC0-24 h) and relative bioavailability towards the IM-250 suspension was calculated. The doses for the salts were adjusted to 10 mg/kg free IM-250.

[4] = ICH long term and accelerated stability testing (Example 8); format: physicochemical
Method: The long term and accelerated chemical and physical stability was assessed at a Contract Manufacturing Organization. IM-250 HCl salt samples were primary packaged in double PE bags (50 μm, Semadeni, e.g. cat. #2439 with each tag tied with plastic twist). The secondary package was a HDPE-drum closed with a HDPE screw cap (CurTec). The storage conditions were 25±2° C./60±5% relative humidity and 40±2° C./75±5% relative humidity.

[5] = Relative bioavailability and brain exposure of d3-IM-250 HCl salt versus IM-250 HCl salt in male mice (Example 12); format: in vivo; conditions: mouse, male C57bl/6 mice, single oral dose 10 mg/kg; for Kp at 24 h: brain and whole blood, 24 h post dose, read-out: blood/brain ratio; for AUC(0-t): read-out: AUC0-24; for Cmax: suspension in 0.5% HPMC in PBS; for concentration at 24 h: brain 24 h post dose after PBS perfusion, read-out: brain level @ 24 h
Method: Animals (3 per group) had food withdrawn approximately 2 h before administration of 10 mg/kg of the test items. The suspensions were prepared directly by adding powder to 0.5% HPMC in PBS, ultrasonificated and orally administered with a gavage volume of 5 mL/kg. Blood samples (20 μL) were taken at 0.5 h, 1 h, 2 h, 5 h, 12 h and 24 h via capillary microsampling, collected from the tail vein into Li-heparin tubes. The samples were frozen on dry ice within 1-2 min of sampling and stored at −20° C. until LC-MS/MS analysis measured via non-chiral LC-MS. After 24 h post dose, animals were sacrificed and perfused with PBS until PBS was transparent and brain was collected and stored at −20° C. until processed for LC-MS analysis to determine the brain/blood exposure. The peak blood concentration (Cmax), elimination half-life (t1/2), area-under-curve (AUC0-24 h) and blood/brain ratio (as an easily obtainable surrogate parameter for nerve tissue exposure) was determined.

[6] = at least 4 weeks after storage at 40° C./75% RH and at 60° C.

For `Cc1nc(N(C)C(=O)Cc2ccc(-c3cc(F)ccc3F)cc2)sc1[S@@](C)(=N)=O` [IM-250 Free base Form I, (S)-2-(2′,5′-Difluoro-[1,1′-biphenyl]-4-yl)-N-methyl-N-(4-methyl-5-(S-methylsulfon-imidoyl)thiazol-2-yl)acetamide], the “% of unchanged compound left” value ([1]; 40° C./75% RH, 2 wk) was 99.4%, the “% of unchanged compound left” value ([1]; 40° C./75% RH, 4 wk) was 100.2% and the “% of unchanged compound left” value ([1]; 60° C., 2 wk) was 99.6%. For the same compound, the “% of unchanged compound left” value ([1]; 60° C., 4 wk) was 101.4%, the “chemical stability as a bulk powder” value [1, 6] was “chemically stable” and the “DSC Enthalpy transition” value ([2]; 40° C./75% RH, 2 wk) was -77 J/g. For the same compound, the “DSC melting endotherm Temperature Onset” value ([2]; 40° C./75% RH, 2 wk) was 163 °C, the “DSC melting endotherm Temperature Peak” value ([2]; 40° C./75% RH, 2 wk) was 165 °C and the “DSC Enthalpy transition” value ([2]; 40° C./75% RH, 4 wk) was -80 J/g. The “DSC melting endotherm Temperature Onset” value ([2]; 40° C./75% RH, 4 wk) was 163 °C, the “DSC melting endotherm Temperature Peak” value ([2]; 40° C./75% RH, 4 wk) was 165 °C and the “DSC Enthalpy transition” value ([2]; 60° C., 2 wk) was -85 J/g. The “DSC melting endotherm Temperature Onset” value ([2]; 60° C., 2 wk) was 163 °C, the “DSC melting endotherm Temperature Peak” value ([2]; 60° C., 2 wk) was 164 °C and the “DSC Enthalpy transition” value ([2]; 60° C., 4 wk) was -80 J/g. For the same compound, the “DSC melting endotherm Temperature Onset” value ([2]; 60° C., 4 wk) was 163 °C, the “DSC melting endotherm Temperature Peak” value ([2]; 60° C., 4 wk) was 165 °C and the “physical stability as a bulk powder” value [2, 6] was “physically stable”. The “DSC Enthalpy transition” value ([2]; no stress, initial analysis) was -83 J/g, the “DSC melting endotherm Temperature Onset” value ([2]; no stress, initial analysis) was 163 °C and the “DSC melting endotherm Temperature Peak” value ([2]; no stress, initial analysis) was 164 °C. It also gave an AUC0-24 h [3] of 7683 ng·h/mL.
For `Cc1nc(N(C)C(=O)Cc2ccc(-c3cc(F)ccc3F)cc2)sc1[S@@](C)(=N)=O` [IM-250 HCl salt], the “Assay (HPLC, % w/w, as-is)” value ([4]; 6 months 25° C./60% RH) was 97.9%, the “Chiral purity (HPLC area %)” value ([4]; 6 months 25° C./60% RH) was 99.9% and the Color and apperance ([4]; 6 months 25° C./60% RH) was “white to off-”. The “Purity (HPLC area %)” value ([4]; 6 months 25° C./60% RH) was 99.2%, the “Water content (% w/w)” value ([4]; 6 months 25° C./60% RH) was 0.08% and the “Assay (HPLC, % w/w, as-is)” value ([4]; 6 months 40° C./75% RH) was 98.6%. The “Chiral purity (HPLC area %)” value ([4]; 6 months 40° C./75% RH) was 99.9%, the Color and apperance ([4]; 6 months 40° C./75% RH) was “white to off-” and the “Identity by XRPD” value ([4]; 6 months 40° C./75% RH) was “conforms to”. For the same compound, the “Purity (HPLC area %)” value ([4]; 6 months 40° C./75% RH) was 99.1%, the “Water content (% w/w)” value ([4]; 6 months 40° C./75% RH) was 0.10% and the “Assay (HPLC, % w/w, as-is)” value ([4]; Initial) was 98.5%. The “Chiral purity (HPLC area %)” value ([4]; Initial) was 99.8%, the Color and apperance ([4]; Initial) was “white to off-” and the “Identity by XRPD” value ([4]; Initial) was “conforms to”. The “Purity (HPLC area %)” value ([4]; Initial) was 99.2%, the “Water content (% w/w)” value ([4]; Initial) was 0.08% and the “physical stability as a bulk powder” value ([4]; at least 6 month after storage at 25° C. and at 40° C.) was “physically stable”. The Kp at 24 h [5] was 0.6 ± 0.2, the half-life ([5]; whole blood, blood) was 5.7 h and the AUC(0-t) ([5]; whole blood, blood) was 14400 ng·h/mL. The Cmax ([5]; whole blood, blood) was 1210 ng/mL, the concentration at 24 h [5] was 175 ng/g and the AUC0-24 h [3] was 68289 ng·h/mL.
For `Cc1nc(N(C)C(=O)Cc2ccc(-c3cc(F)ccc3F)cc2)sc1[S@@](C)(=N)=O` [IM-250 Napadisylate], the AUC0-24 h [3] was 48241 ng·h/mL.
With `[2H]C([2H])([2H])c1nc(N(C)C(=O)Cc2ccc(-c3cc(F)ccc3F)cc2)sc1[S@@](C)(=N)=O` [d3-IM-250 HCl salt] the Kp at 24 h [5] was 0.49 ± 0.1, the AUC(0-t) ([5]; whole blood, blood) was 28600 ng·h/mL and the Cmax ([5]; whole blood, blood) was 2570 ng/mL. For the same compound, the concentration at 24 h [5] was 568 ng/g.
Work on `Cc1nc(N(C)C(=O)Cc2ccc(-c3cc(F)ccc3F)cc2)sc1[S@@](C)(=N)=O` [suspended IM-250 from DMSO, (S)-2-(2′,5′-Difluoro-[1,1′-biphenyl]-4-yl)-N-methyl-N-(4-methyl-5-(S-methylsulfon-imidoyl)thiazol-2-yl)acetamide] yielded an AUC0-24 h [3] of 66406 ng·h/mL.
